This passage reports IC50 and melting point results from US6770645B2, “Pharmaceutically active compounds” (Pfizer Inc., priority 2001, dated 2004).

Each structure is given as a SMILES string. Where a name gives a salt, the structure may show the parent alone. Read-outs that look alike come from different tables or passages of the source.

Data set [1] concerns the target T1, cGMP PDE5 (Homo sapiens, UniProt O76074).
T1 construct: The required PDE enzymes were isolated from a variety of sources, including human corpus cavernosum, human platelets; from tissue; host or cells: human corpus cavernosum tissue or human platelets
Kind of data set: In vitro cGMP PDE5 inhibitory activity (IC50). The format is biochemical. The method, then:
The compounds of the present invention are potent and selective cGMP PDE5 inhibitors. In vitro PDE inhibitory activities against cyclic guanosine 3′,5′-monophosphate (cGMP) and cyclic adenosine 3′,5′-monophosphate (cAMP) phosphodiesterases were determined by measurement of their IC50 values (the concentration of compound required for 50% inhibition of enzyme activity).
The required PDE enzymes were isolated from a variety of sources, including human corpus cavernosum, human platelets, human cardiac ventricle, human skeletal muscle and human and canine retina, essentially by the method of W. J. Thompson and M. M. Appleman (Biochem., 1971, 10, 311). In particular, the cGMP-specific PDE (PDE5) and the cGMP-inhibited cAMP PDE (PDE3) were obtained from human corpus cavernosum tissue or human platelets; the cGMP-stimulated PDE (PDE2) was obtained from human corpus cavernosum or human platelets; the calcium/calmodulin (Ca/CAM)-dependent PDE (PDE1) from human cardiac ventricle; the cAMP-specific PDE (PDE4) from recombinant clone or human skeletal muscle; and the photoreceptor PDE (PDE6) from canine or human retina. Phosphodiesterases 7-11 were generated from full length human recombinant clones transfected into SF9 cells.
Assays were performed either using a modification of the “batch” method of W. J. Thompson et al. (Biochem., 1979, 18, 5228) or using a scintillation proximity assay for the direct detection of AMP/GMP using a modification of the protocol described by Amersham pic under product code TRKQ7090/7100. In summary, the effect of PDE inhibitors was investigated by assaying a fixed amount of enzyme in the presence of varying inhibitor concentrations and low substrate, (cGMP or cAMP in a 3:1 ratio unlabelled to [^3H]-labeled at a conc ˜½ Km) such that IC50 ≅Ki. The final assay volume was made up to 102 μl with assay buffer [20 mM Tris-HCl pH 7.4, 5 mM MgCl2, 1 mg/ml bovine serum albumin]. Reactions were initiated with enzyme, incubated for 30-60 min at 30° C. to give <30% substrate turnover and terminated with 50 μl yttrium silicate SPA beads (containing 3 mM of the respective unlabelled cyclic nucleotide for PDEs 3, 9 and 11). Plates were resealed and shaken for 20 min, after which the beads were allowed to settle for 30 min in the dark and then counted on a TopCount plate reader (Packard, Meriden, Conn.). Radioactivity units were converted to % activity of an uninhibited control (100%), plotted against inhibitor concentration and inhibitor IC50 values obtained using the ‘Fit Curve’ Microsoft Excel extension or inhouse equivalent.

[2] abbreviates: bounds for groups of Examples, read-out: IC50 values for the PDE5 enzyme.
[3] abbreviates: in vitro cGMP PDE5 inhibitory activity, Table 1, read-out: IC50.

One may read the IC50 as the point on the concentration scale where inhibition reaches its midpoint. For the compound `CCCOc1ccc(S(C)(=O)=O)cc1-c1nc2c(CC)nn(CCN(C(C)C)C(C)C)c2c(=O)[nH]1` [Example 24, 1-[2-(Diisopropylamino)ethyl]-3-ethyl-5-[5-(methylsulfonyl)-2-propoxyphenyl]-1,6-dihydro-7H-pyrazolo[4,3-d]pyrimidin-7-one], the IC50 in data set [1] (setting [2]) was < 10 nM; in data set [1] (setting [3]) it was 6.7 nM.
Broadly, the melting point is the temperature, or range, at which the solid turns liquid. For `CCc1nn(Cc2cccnn2)c2c(=O)[nH]c(-c3cc(S(C)(=O)=O)ccc3OCC(C)C)nc12` [Example 16, 3-Ethyl-5-[2-isobutoxy-5-(methylsulfonyl)phenyl]-1-(3-pyridazinylmethyl)-1,6-dihydro-7H-pyrazolo[4,3-d]pyrimidin-7-one], the melting point lay within 231 to 234 °C. Further, in data set [1] (setting [2]), the half-maximal inhibitory concentration (IC50) is < 10 nM. Besides, in data set [1] (setting [3]), the IC50 was 9.8 nM.
In the case of `CCc1nn(C[C@@H]2CCCN2C)c2c(=O)[nH]c(-c3cc(S(C)(=O)=O)ccc3OCC(C)C)nc12` [Example 13, 3-Ethyl-5-[2-isobutoxy-5-(methylsulfonyl)phenyl]-1-{[(2S)-1-methylpyrrolidinyl]methyl}-1,6-dihydro-7H-pyrazolo[4,3-d]pyrimidin-7-one], the melting point lay in the range of 190 to 194 °C. In data set [1] (setting [2]), the concentration for half-maximal inhibition (IC50) is < 10 nM. The IC50 in data set [1] (setting [3]) turned out to be 6.3 nM.
Consider `CCCOc1ccc(S(C)(=O)=O)cc1-c1nc2c(CC)nn(C[C@@H]3CCCCN3C)c2c(=O)[nH]1` [Example 28, 3-Ethyl-1-{[(2S)-1-methylpiperidinyl]methyl}-5-[5-(methylsulfonyl)-2-propoxyphenyl]-1,6-dihydro-7H-pyrazolo[4,3-d]pyrimidin-7-one], for which the figures for the IC50 in data set [1] (setting [2]) and in data set [1] (setting [3]) were < 10 nM and 3.6 nM, respectively.
With `CCCCOc1ccc(S(C)(=O)=O)cc1-c1nc2c(CC)nn(Cc3ccccn3)c2c(=O)[nH]1` (as salt: potassium) [Example 5, 5-[2-Butoxy-5-(methylsulfonyl)phenyl]-3-ethyl-1-(2-pyridinylmethyl)-1,6-dihydro-7H-pyrazolo[4,3-d]pyrimidin-7-one], the melting point fell in the range of 189 to 191 °C.
In turn, `CCc1n[nH]c2c(=O)[nH]c(-c3cc(S(C)(=O)=O)ccc3OCc3ccccn3)nc12` [Example 6, 3-Ethyl-5-[5-(methylsulfonyl)-2-(2-pyridinylmethoxy)phenyl]-1,6-dihydro-7H-pyrazolo[4,3-d]pyrimidin-7-one] gave a melting point of 283 to 286 °C.
In turn, `CCc1nn(Cc2nccn2C)c2c(=O)[nH]c(-c3cc(S(C)(=O)=O)ccc3OCC(C)C)nc12` [Example 7, 3-Ethyl-5-[2-isobutoxy-5-(methylsulfonyl)phenyl]-1-[(1-methyl-1H-imidazol-2-yl)methyl]-1,6-dihydro-7H-pyrazolo[4,3-d]pyrimidin-7-one] came in with a melting point of 253 to 254 °C. Also, the IC50 in data set [1] (setting [2]) is < 10 nM. The half-maximal inhibitory concentration (IC50) in data set [1] (setting [3]) was found to be 1.7 nM.
On to `CCCOc1ccc(S(C)(=O)=O)cc1-c1nc2c(CC)n(CCN(C(C)C)C(C)C)nc2c(=O)[nH]1` [Example 25, 2-[2-(diisopropylamino)ethyl]-3-ethyl-5-[5-(methylsulfonyl)-2-propoxyphenyl]-2,6-dihydro-7H-pyrazolo[4,3-d]pyrimidin-7-one], for which the IC50 is < 10 nM in data set [1] (setting [2]) and 5.4 nM in data set [1] (setting [3]).
`C=CCc1nc(CC)n2nc(-c3cc(S(C)(=O)=O)ccc3OCCCC)[nH]c(=O)c12` [Example 29]: the melting point fell in the range of 192 to 194 °C. Besides, the IC50 in data set [1] (setting [2]) is < 10 nM. Also, in data set [1] (setting [3]), the IC50 was found to be 6.7 nM.
The corresponding values for `CCc1nn(Cc2ccccn2)c2c(=O)[nH]c(-c3cc(S(C)(=O)=O)ccc3OCC(C)C)nc12` [Example 3, 3-Ethyl-5-[2-isobutoxy-5-(methylsulfonyl)phenyl]-1-(2-pyridinylmethyl)-1,6-dihydro-7H-pyrazolo[4,3-d]pyrimidin-7-one] are 223 to 225 °C, < 10 nM and 1.5 nM.
In turn, `CCc1c2nc(-c3cc(S(C)(=O)=O)ccc3OCC(C)C)[nH]c(=O)c2nn1C1CCN(C(C)C)CC1` [Example 22, 3-Ethyl-5-[2-isobutoxy-5-(methylsulfonyl)phenyl]-2-(1-isopropyl-4-piperidinyl)-2,6-dihydro-7H-pyrazolo[4,3-d]pyrimidin-7-one] gave a melting point of 273 to 275 °C. Further, in data set [1] (setting [3]), the IC50 stood at 13.4 nM.
For the compound `CCc1nn(C2CN(C(C)C)C2)c2c(=O)[nH]c(-c3cc(S(C)(=O)=O)ccc3OCC(C)C)nc12` [Example 20], the melting point lay within 206 to 209 °C. In data set [1] (setting [3]), the IC50 is 13.7 nM.
Take `CCCOc1ccc(S(C)(=O)=O)cc1-c1nc2c(CC)nn(Cc3ccccn3)c2c(=O)[nH]1` (as salt: potassium) [Example 11, 3-Ethyl-5-[5-(methylsulfonyl)-2-propoxyphenyl]-1-(2-pyridinylmethyl)-1,6-dihydro-7H-pyrazolo[4,3-d]pyrimidin-7-one]: the melting point is 209 to 211 °C.
`CCc1c2nc(-c3cc(S(C)(=O)=O)ccc3OCC(C)C)[nH]c(=O)c2nn1Cc1ccccn1` [Example 17, 3-Ethyl-5-[2-isobutoxy-5-(methylsulfonyl)phenyl]-2-(2-pyridinylmethyl)-2,6-dihydro-7H-pyrazolo[4,3-d]pyrimidin-7-one] displayed a melting point of 235 to 238 °C. In data set [1] (setting [2]), the IC50 was < 10 nM. Further, the IC50 in data set [1] (setting [3]) amounted to 4.8 nM.
The like results for `CCc1c2nc(-c3cc(S(C)(=O)=O)ccc3OCC(C)C)[nH]c(=O)c2nn1CCN1CCOCC1` [Example 10, 3-Ethyl-5-[2-isobutoxy-5-(methylsulfonyl)phenyl]-2-[2-(4-morpholinyl)ethyl]-2,6-dihydro-7H-pyrazolo[4,3-d]pyrimidin-7-one] were, in that order, 268 to 273 °C, < 10 nM and 7.6 nM.
`CCc1c2nc(-c3cc(S(C)(=O)=O)ccc3OCC(C)C)[nH]c(=O)c2nn1C1CCN(C)CC1` [Example 21, 3-Ethyl-5-[2-isobutoxy-5-(methylsulfonyl)phenyl]-2-(1-methyl-4-piperidinyl)-2,6-dihydro-7H-pyrazolo[4,3-d]pyrimidin-7-one] had a melting point of 292 to 295 °C. For the same compound, in data set [1] (setting [3]), the IC50 was 12.5 nM.
Compound `CCCCOc1ccc(S(C)(=O)=O)cc1-c1nc2c(CC)n(CCN3CCOCC3)nc2c(=O)[nH]1` [Example 8, 5-[2-Butoxy-5-(methylsulfonyl)phenyl]-3-ethyl-2-[2-(4-morpholinyl)ethyl]-2,6-dihydro-7H-pyrazolo[4,3-d]pyrimidin-7-one] gave a melting point of 235 to 238 °C. Besides, the IC50 in data set [1] (setting [2]) was < 10 nM. Besides, in data set [1] (setting [3]), the IC50 amounted to 10 nM.
As for `CCCOc1ccc(S(=O)(=O)CC)cc1-c1nc2c(CC)nn(C[C@@H]3CCCN3C)c2c(=O)[nH]1` [Example 26, 3-Ethyl-5-[5-(ethylsulfonyl)-2-propoxyphenyl]-1-{[(2S)-1-methylpyrrolidinyl]methyl}-1,6-dihydro-7H-pyrazolo[4,3-d]pyrimidin-7-one], the IC50 in data set [1] (setting [3]) was 18.3 nM.
For the compound `CCCOc1ncc(S(C)(=O)=O)cc1-c1nc2c(CC)nn(C[C@@H]3CCCN3C)c2c(=O)[nH]1` [Example 23, 3-Ethyl-1-{[(2S)-1-methylpyrrolidinyl]methyl}-5-[5-(methylsulfonyl)-2-propoxy-3-pyridinyl]-1,6-dihydro-7H-pyrazolo[4,3-d]pyrimidin-7-one], the melting point was 182 to 183 °C.
Consider `CCCCOc1ccc(S(C)(=O)=O)cc1-c1nc2c(CC)nn(Cc3ccccn3)c2c(=O)[nH]1` [Example 5, 5-[2-Butoxy-5-(methylsulfonyl)phenyl]-3-ethyl-1-(2-pyridinylmethyl)-1,6-dihydro-7H-pyrazolo[4,3-d]pyrimidin-7-one], for which the IC50 in data set [1] (setting [2]) is < 10 nM; in data set [1] (setting [3]), 3.5 nM.
Regarding `CCc1c2nc(-c3cc(S(C)(=O)=O)ccc3OCC(C)C)[nH]c(=O)c2nn1Cc1cccnn1` [Example 15, 3-Ethyl-5-[2-isobutoxy-5-(methylsulfonyl)phenyl]-2-(3-pyridazinylmethyl)-2,6-dihydro-7H-pyrazolo[4,3-d]pyrimidin-7-one], the melting point is 244 to 247 °C. Further, in data set [1] (setting [2]), the IC50 was < 10 nM. The IC50 in data set [1] (setting [3]) amounted to 7.3 nM.
In the case of `CCc1nn(Cc2ccccn2)c2c(=O)[nH]c(-c3cc(S(C)(=O)=O)ccc3OCCOC)nc12` [Example 4, 3-Ethyl-5-[2-(2-methoxyethoxy)-5-(methylsulfonyl)phenyl]-1-(2-pyridinylmethyl)-1,6-dihydro-7H-pyrazolo[4,3-d]pyrimidin-7-one], the melting point was in the range of 166 to 167 °C.
